Source: ChEMBL document CHEMBL6177994 (J Med Chem, 2025)
Calls of active or inactive are those of the source. No cut-off for these calls is given here.

Experiments:
[1] = test system: Protein cereblon/GTPase KRas (Homo sapiens), P01116+Q96SW2 [G12D]; test: PROTAC activity at CRBN/KRAS G12D mutant in human ASPC1 cells assessed as induction of KRAS G12D mutant degradation at 5 nM measured after 24 hrs by immunoblot analysis relative to control; assay type: cell-based
[2] = test system: Protein cereblon/GTPase KRas (Homo sapiens), P01116+Q96SW2 [G12D]; test: PROTAC activity at CRBN/KRAS G12D mutant in human ASPC1 cells assessed as induction of KRAS G12D mutant degradation at 1 nM measured up to 36 hrs by immunoblot analysis; assay type: cell-based
[3] = target: Protein cereblon/GTPase KRas (Homo sapiens, UniProt P01116+Q96SW2, G12D); test: PROTAC activity at CRBN/KRAS G12D mutant in human ASPC1 cells assessed as induction of KRAS G12D mutant degradation measured after 24 hrs by immunoblot analysis; assay type: cell-based
GP2d = test: PROTAC activity at CRBN/KRAS G12D mutant in human GP2d cells assessed as induction of KRAS G12D mutant degradation 0.01 to 100 nM measured after 24 hrs by immunoblot analysis; assay type: cell-based; conditions: dose 0.01-100 nM
PK-59 = test: PROTAC activity at CRBN/KRAS G12D mutant in human PK-59 cells assessed as induction of KRAS G12D mutant degradation 0.01 to 100 nM measured after 24 hrs by immunoblot analysis; assay type: cell-based; conditions: dose 0.01-100 nM
[4] = Inhibition of ERK phosphorylation in human GP2d cells harbouring KRAS G12D mutant measured after 24 hrs; assay type: cell-based
[5] = target: Protein cereblon/GTPase HRas (Homo sapiens) (UniProt P01112+Q96SW2); test: PROTAC activity at CRBN/HRAS in human MKN-1 cells assessed as […] degradation 0.061 to 1000 nM measured after 24 hrs by immunoblot analysis; assay type: cell-based; conditions: dose 0.061-1000 nM
[6] = Antiproliferative activity against human GP2d cells harbouring KRAS G12D mutant assessed as inhibition of cell growth measured after 72 hrs by Cell titer glo method; assay type: functional, cell-based
MKN-1 = test: Antiproliferative activity against human MKN-1 cells harbouring wild type KRAS assessed as inhibition of cell growth measured after 72 hrs by Cell titer glo method; assay type: functional, cell-based
HEK293 = test: Antiproliferative activity against HEK293 cells harbouring wild type KRAS assessed as inhibition of cell growth measured after 72 hrs by Cell titer glo method; assay type: toxicity, cell-based; conditions: human, hek293, 72 h
SNU-407 = test: Antiproliferative activity against human SNU-407 cells harbouring KRAS G12D mutant assessed as inhibition of cell growth measured after 72 hrs by Cell titer glo method; assay type: functional, cell-based
HPAC = test: Antiproliferative activity against human HPAC cells harbouring KRAS G12D mutant assessed as inhibition of cell growth measured after 72 hrs by Cell titer glo method; assay type: functional, cell-based
[7] = test system: Protein cereblon/GTPase KRas (Homo sapiens), P01116+Q96SW2 [G12D]; test: PROTAC activity at CRBN/KRAS G12D mutant in human ASPC1 cells assessed as induction of KRAS G12D mutant degradation at 5 nM preincubated with MRTX1133 followed by compound addition and measured after 24 hrs by Western blot analysis; assay type: cell-based
[8] = Antitumor activity against human PK-59 cells xenografted in female Balb/c nude mouse model assessed as tumor growth inhibition at 0.3 mg/kg, iv QW measured after 28 days relative to control; assay type: functional; conditions: PK-59, 672 h, time 28 day, read-out: TGI
[9] = Antitumor activity against human GP2d cells xenografted in female Balb/c nude mouse model assessed as tumor growth inhibition at 10 mg/kg, iv QW administered weekly and measured after 28 days relative to control; assay type: functional; conditions: 672 h, time 28 day, read-out: TGI
[10] = Toxicity in female Balb/c nude mouse xenografted with human GP2d cells assessed as change in body weight at 1 to 10 mg/kg, iv QW measured after 28 days; assay type: organism-based; conditions: in vivo, 672 h, dose 1-10 mg/kg, time 28 day
[11] = Drug concentration in male Balb/c nude mouse plasma xenografted with human PK-59 cells at 10 mg/kg, iv administered as single dose measured after 168 hrs by LC-MS/MS analysis; assay type: ADME, organism-based
[12] = test system: Protein cereblon/GTPase KRas (Homo sapiens), P01116+Q96SW2 [G12D]; test: In vivo PROTAC activity at CRBN/KRAS G12D mutant in male Balb/c nude mouse xenografted with human PK-59 cells assessed as reduction in DUSP4 level in tumor at 10 mg/kg, iv measured after 6 hrs relative to control; assay type: functional, organism-based; parameters: scale not given: the % may be the effect or the level left
[13] = Drug concentration in male Balb/c nude mouse tumor xenografted with human PK-59 cells at 10 mg/kg, iv administered as single dose measured after 6 hrs by LC-MS/MS analysis; assay type: ADME, organism-based, Neoplasm; conditions: read-out: Ct
[14] = Metabolic stability in rat liver microsomes assessed as intrinsic clearance at 1 uM preincubated for 3 mins with NADPH and measured up to 60 mins by LC-MS/MS analysis; assay type: ADME, Microsome; conditions: time < 63 min, read-out: CLH
[15] = Metabolic stability in monkey liver microsomes assessed as intrinsic clearance at 1 uM preincubated for 3 mins with NADPH and measured up to 60 mins by LC-MS/MS analysis; assay type: ADME, Macaca mulatta, Microsome; conditions: rhesus monkey, time < 63 min, read-out: CLH
[16] = Metabolic stability in human liver microsomes assessed as intrinsic clearance at 1 uM preincubated for 3 mins with NADPH and measured up to 60 mins by LC-MS/MS analysis; assay type: ADME, Microsome; conditions: time < 63 min, read-out: CLH
[17] = Stability in human hepatocyte assessed as half life at 100 uM measured up to 120 mins by LC-MS/MS analysis; assay type: ADME, cell-based; conditions: hepatocytes
[18] = Stability in human hepatocyte assessed as intrinsic clearance at 100 uM measured up to 120 mins by LC-MS/MS analysis; assay type: ADME, cell-based; conditions: hepatocytes, read-out: CLH
Cytochrome P450 3A4 = Cytochrome P450 3A4 (Homo sapiens, UniProt P08684); test: Inhibition of CYP3A4 in human liver microsomes using midazolam as substrate at 10 uM incubated for 15 mins in presence of NADPH by LC/MS analysis; assay type: ADME, Microsome; conditions: 0.25 h
[19] = AUC (0 to t) in male ICR mouse at 1 mg/kg, iv measured up to 24 hrs by LC-MS/MS analysis; assay type: ADME, organism-based; conditions: in vivo
[20] = AUC (0 to t) in male Sprague-Dawley rat at 1 mg/kg, iv measured up to 24 hrs by LC-MS/MS analysis; assay type: ADME, organism-based; conditions: in vivo
[21] = Volume of distribution at steady state in male Sprague-Dawley rat at 1 mg/kg, iv measured up to 24 hrs by LC-MS/MS analysis; assay type: ADME, organism-based; conditions: in vivo, read-out: Vdss
[22] = Half life in male cynomolgus monkey at 1 mg/kg, iv measured up to 24 hrs by LC-MS/MS analysis; assay type: ADME, organism-based, Macaca fascicularis; conditions: in vivo
[23] = Volume of distribution at steady state in male cynomolgus monkey at 1 mg/kg, iv measured up to 24 hrs by LC-MS/MS analysis; assay type: ADME, organism-based, Macaca fascicularis; conditions: in vivo, read-out: Vdss
[24] = Half life in male ICR mouse plasma at 10 mg/kg, iv measured after 72 hrs by LC-MS/MS analysis; assay type: ADME, organism-based
[25] = Elimination half life in male ICR mouse pancreas at 10 mg/kg, iv measured up to 336 hrs by LC-MS/MS analysis; assay type: ADME, organism-based; conditions: read-out: beta t1/2 (converted)
[26] = Elimination half life in male ICR mouse lung at 10 mg/kg, iv measured up to 336 hrs by LC-MS/MS analysis; assay type: ADME, organism-based; conditions: read-out: beta t1/2 (converted)

Sequence of Protein cereblon/GTPase KRas (Homo sapiens), P01116+Q96SW2 [G12D] (P01116 whole entry G12D): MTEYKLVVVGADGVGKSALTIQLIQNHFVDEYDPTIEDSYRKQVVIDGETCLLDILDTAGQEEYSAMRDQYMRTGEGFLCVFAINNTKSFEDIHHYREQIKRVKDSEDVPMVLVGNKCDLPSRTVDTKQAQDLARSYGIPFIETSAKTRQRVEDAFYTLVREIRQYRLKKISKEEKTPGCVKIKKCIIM
Sequence of Protein cereblon/GTPase KRas (Homo sapiens), P01116+Q96SW2 [G12D] (Q96SW2 whole entry partner): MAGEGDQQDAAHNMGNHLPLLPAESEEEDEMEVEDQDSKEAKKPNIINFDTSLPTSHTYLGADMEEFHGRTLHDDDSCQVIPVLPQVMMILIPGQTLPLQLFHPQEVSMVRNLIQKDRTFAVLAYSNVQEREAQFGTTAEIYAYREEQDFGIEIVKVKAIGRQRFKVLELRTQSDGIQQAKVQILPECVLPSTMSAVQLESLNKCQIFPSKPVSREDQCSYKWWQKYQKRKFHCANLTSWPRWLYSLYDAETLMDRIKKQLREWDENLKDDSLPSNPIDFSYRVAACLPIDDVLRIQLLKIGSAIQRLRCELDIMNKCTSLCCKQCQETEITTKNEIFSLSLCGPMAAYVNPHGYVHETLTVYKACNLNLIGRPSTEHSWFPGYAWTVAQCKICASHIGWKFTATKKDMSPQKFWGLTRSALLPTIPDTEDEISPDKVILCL
Sequence of Protein cereblon/GTPase KRas (P01116 whole entry G12D, stated change not applied): as the sequence (P01116 whole entry G12D) above
Sequence of Protein cereblon/GTPase KRas (Q96SW2 whole entry, stated change not applied): as the sequence (Q96SW2 whole entry partner) above
Sequence of Cytochrome P450 3A4 (P08684 whole entry): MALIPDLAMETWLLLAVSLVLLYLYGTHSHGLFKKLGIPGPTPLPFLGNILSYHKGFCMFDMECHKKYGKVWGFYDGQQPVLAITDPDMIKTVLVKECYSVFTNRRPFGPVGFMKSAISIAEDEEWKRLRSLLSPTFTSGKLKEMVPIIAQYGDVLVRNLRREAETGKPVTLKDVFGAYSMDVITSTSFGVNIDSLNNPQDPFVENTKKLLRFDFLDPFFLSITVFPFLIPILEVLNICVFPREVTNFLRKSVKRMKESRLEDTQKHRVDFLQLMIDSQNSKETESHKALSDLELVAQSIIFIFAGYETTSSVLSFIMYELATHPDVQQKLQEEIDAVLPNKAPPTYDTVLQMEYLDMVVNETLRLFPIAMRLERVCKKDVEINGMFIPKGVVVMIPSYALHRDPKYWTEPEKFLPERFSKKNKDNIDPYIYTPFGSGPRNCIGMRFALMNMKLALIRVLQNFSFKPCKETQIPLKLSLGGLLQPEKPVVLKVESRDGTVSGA
Sequence of Protein cereblon/GTPase HRas (Homo sapiens) (P01112 whole entry, looked up): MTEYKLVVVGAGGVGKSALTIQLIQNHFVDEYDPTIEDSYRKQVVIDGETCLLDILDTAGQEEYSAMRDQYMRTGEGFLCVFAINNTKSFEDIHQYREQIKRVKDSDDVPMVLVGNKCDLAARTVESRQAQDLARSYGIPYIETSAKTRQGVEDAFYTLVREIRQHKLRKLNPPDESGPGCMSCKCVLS
Sequence of Protein cereblon/GTPase HRas (Homo sapiens) (Q96SW2 whole entry, looked up): as the sequence (Q96SW2 whole entry partner) above

## C#Cc1c(F)ccc2cc(O)cc(-c3ncc4c(N5CC6CCC(C5)N6)nc(OCC5(CN6CCC7(CC6)CC(N6CCC(c8cc9c(cc8F)c(N8CCC(=O)NC8=O)nn9C)CC6)C7)CC5)nc4c3F)c12
[1]
  Activity: 92%
[2]
  Activity: Active
[3]
  DC50: 0.6 nM
GP2d
  Activity: Active
PK-59
  Activity: Active
[4]
  IC50: 0.35 nM
[5]
  Activity: inactive
[6]
  IC50: 0.19 nM
MKN-1
  Activity: Weak_effect; Compound Showed Weaker Potency In Antiproliferative Activity Compared To Mrtx1133
HEK293
  Activity: Non-toxic
SNU-407
  Activity: Active; Compound Showed Stronger Antiproliferative Activity Compared To Mrtx1133
HPAC
  Activity: Active; Compound Showed Stronger Antiproliferative Activity Compared To Mrtx1133
[7]
  Activity: Active
[8]
  inhibition in vivo at 0.3 mg/kg: 93%
[9]
  inhibition in vivo at 10 mg/kg: 30.9%
[10]
  Activity: Non-toxic
[11]
  concentration at 168 h: 5.3 ng/mL
[12]
  Activity: 11%
[13]
  concentration at 6 h: 1040 ng/g
[14]
  CLint scaled at 1 µM: 16.6 mL/min/kg
[15]
  CLint scaled at 1 µM: 4.3 mL/min/kg
[16]
  CLint scaled at 1 µM: 8.1 mL/min/kg
[17]
  half-life at 100 µM: 7.27 h
[18]
  CLint scaled at 100 µM: 5.8 mL/min/kg
Cytochrome P450 3A4
  inhibition (INH): Not_active
[19]
  AUC(0-t) at 24 h: 0.397 µM·h
[20]
  AUC(0-t) at 24 h: 0.531 µM·h
[21]
  Vd: 10.3 L/kg
[22]
  half-life: 12.4 h
[23]
  Vd: 12.7 L/kg
[24]
  half-life: 15.1 h
[25]
  half-life: 330 h
[26]
  half-life: 105 h
